Laboratory results from patent US20250197387A1, “BCL-XL DEGRADERS AND USES THEREOF” (Kymera Therapeutics, Inc., priority 2021, published 2025).
Read-outs that look alike come from different tables or passages of the source.

How the values were obtained:
Format in all cases: cell-based
[1] = tested on: MOLT-4 cells; test: CTG (CellTiter-Glo) cell viability assay, MOLT-4; conditions: Homo sapiens, 3 day incubation, read-out: CTG Cell Viability Assay - MOLT-4 3 day: Average external-IC50
How it was run: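 MOLT-4 and Caki-2 cells were seeded at 10,000 per well and treated with a 9-point, 1:3 dilution series from 10 μM top concentration (0.2% DMSO). After 3 days at 37 °C, 5% CO2, viability was read by CellTiter-Glo luminescence and IC50 fitted by three-parameter logistic.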

[2] = target: T1, BCL-XL (Homo sapiens, UniProt Q07817); test: Bcl-xL ELISA degradation in MOLT-4 cells, 6 h; conditions: for DC50: read-out: Bcl-xL ELISA in MOLT-4 degradation 6 h: Mean external-Abs DC50
T1 construct: endogenous in cells; host or cells: MOLT-4
Description: The letter codes for BCL-XL DC50 include: A (<0.01 μM); B (0.01-0.1 μM); C (>[…]); D (>0.5-1.0 μM); and E (>1.0 μM). The letter codes for Dmax % include A (>75%); B (50 to 75%); C (<50%).

[3] = target: T1, BCL-XL; test: BCL-XL degradation assay, western blot in MOLT-4 cells, 16 h; conditions: for DC50: read-out: Bcl-xL WB in MOLT-4 degradation 16 h: Mean external-Abs DC50
How it was run: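 MOLT-4 cells treated with compounds at 0.02-10 μM final for 16 hr at 37° C; lysates analysed by western blot with anti-BCL-xL, beta-actin and GAPDH loading controls, infrared imaging and densitometry; DC50 and Dmax % reported as letter codes.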

[4] = MOLT-4, read-out: Bcl-xL WB in MOLT-4 degradation 16 h: Average Dmax %
[5] = western blot, MOLT-4 cells, 16 h
[6] = western blot, MOLT-4 cells, 16 h, read-out: Bcl-xL WB in MOLT-4 degradation 16 h: Average Dmax %

T1 sequence (Q07817 whole entry): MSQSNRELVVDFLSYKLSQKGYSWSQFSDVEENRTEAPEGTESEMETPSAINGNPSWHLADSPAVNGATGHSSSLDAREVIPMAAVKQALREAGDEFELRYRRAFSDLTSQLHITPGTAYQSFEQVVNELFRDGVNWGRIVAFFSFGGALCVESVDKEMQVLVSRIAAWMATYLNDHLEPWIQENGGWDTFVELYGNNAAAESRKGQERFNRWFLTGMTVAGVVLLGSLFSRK

Row | Structure (SMILES) | IC50 ([1]; 72 h) | Dmax [2] | DC50 [2] | Dmax [3, 4] | DC50 [3, 5] | IC50 ([1]; MOLT-4, 72 h) | Dmax [3, 6]
1 | Cc1ncsc1-c1ccc([C@H](C)NC(=O)[C@@H]2C[C@@H](O)CN2C(=O)[C@@H](NC(=O)CN2CC(N3CCC(NC(=O)c4nc(N5CCc6cccc(C(=O)Nc7nc8ccccc8s7)c6C5)ccc4-c4cnn(CC5CCCCC5)c4C)CC3)C2)C(C)(C)C)cc1 [I-176] | 100 to 1000 nM | 50 to 75% | 100 to 500 nM | > 75% | 10 to 100 nM | – | –
2 | Cc1ncsc1-c1ccc([C@H](C)NC(=O)[C@@H]2C[C@@H](O)CN2C(=O)[C@@H](NC(=O)CO[C@H]2C[C@H](OCCNC(=O)c3nc(N4CCc5cccc(C(=O)Nc6nc7ccccc7s6)c5C4)ccc3-c3cnn(CC4CCCCC4)c3C)C2)C(C)(C)C)cc1 [I-182] | – | 50 to 75% | 100 to 500 nM | – | 10 to 100 nM | 100 to 1000 nM | > 75%
3 | Cc1ncsc1-c1ccc(CNC(=O)[C@@H]2C[C@@H](O)CN2C(=O)[C@@H](NC(=O)C2(F)CC2)C(C)(C)C)c(OCCCN(C)CC[C@H](CSc2ccccc2)Nc2ccc(S(=O)(=O)NC(=O)c3ccc(N4CCN(CC5=C(c6ccc(Cl)cc6)CCC(C)(C)C5)CC4)cc3)cc2S(=O)(=O)C(F)(F)F)c1 [I-184] | – | 50 to 75% | 100 to 500 nM | – | 10 to 100 nM | 100 to 1000 nM | > 75%
4 | C#Cc1ccc([C@H](CO)NC(=O)[C@@H]2C[C@@H](O)CN2C(=O)[C@@H](NC(=O)CCc2ccc(S(=O)(=O)NC(=O)c3nc(N4CCc5cccc(C(=O)Nc6nc7ccccc7s6)c5C4)ccc3-c3cnn(CC4CCCCC4)c3C)cc2)C(C)(C)C)cc1 [I-194] | – | > 75% | 10 to 100 nM | – | < 10 nM | < 100 nM | > 75%
5 | C#Cc1ccc([C@H](CO)NC(=O)[C@@H]2C[C@@H](O)CN2C(=O)[C@@H](NC(=O)CCc2ccc(S(=O)(=O)NC(=O)c3nc(N(C)c4cc(C)c(Nc5nc6ccccc6s5)nn4)ccc3-c3cnn(CC4CCCCC4)c3C)cc2)C(C)(C)C)cc1 [I-186] | – | 50 to 75% | 10 to 100 nM | – | 10 to 100 nM | 100 to 1000 nM | > 75%
6 | Cc1ncsc1-c1ccc(CNC(=O)[C@@H]2C[C@@H](O)CN2C(=O)[C@@H](NC(=O)C2(F)CC2)C(C)(C)C)c(OCC(=O)N2CCN(CC#Cc3ccc(OCCCc4sc(N5CCc6cccc(C(=O)Nc7nc8ccccc8s7)c6C5)nc4C(=O)O)c(F)c3)CC2)c1 [I-170] | – | 50 to 75% | 10 to 100 nM | – | 10 to 100 nM | 100 to 1000 nM | > 75%
7 | Cc1ncsc1-c1ccc(CNC(=O)[C@@H]2C[C@@H](O)CN2C(=O)[C@@H](c2cc(OCCCCCCCCC(=O)N(C)CC#Cc3ccc(OCCCc4ccc(N5CCc6cccc(C(=O)Nc7nc8ccccc8s7)c6C5)nc4C(=O)O)c(F)c3)no2)C(C)C)cc1 [I-171] | – | – | – | – | 100 to 500 nM | 1000 to 3000 nM | 50 to 75%
8 | Cc1ncsc1-c1ccc(CNC(=O)[C@@H]2C[C@@H](O)CN2C(=O)[C@@H](NC(=O)C2(F)CC2)C(C)(C)C)c(OCC(=O)N2CCN(CCCC3(Cn4ncc(-c5ccc(N6CCc7cccc(C(=O)Nc8nc9ccccc9s8)c7C6)nc5C(=O)O)c4C)CCCCC3)CC2)c1 [I-173] | – | – | – | – | > 1000 nM | 100 to 1000 nM | 50 to 75%
9 | Cc1ncsc1-c1ccc([C@H](C)NC(=O)[C@@H]2C[C@@H](O)CN2C(=O)[C@H](c2cc(OC3CCN(CCCS(=O)(=O)NC(=O)c4nc(N5CCc6cccc(C(=O)Nc7nc8ccccc8s7)c6C5)ccc4-c4cnn(CC5CCCCC5)c4C)CC3)no2)C(C)C)cc1 [I-174] | – | – | – | – | > 1000 nM | 1000 to 3000 nM | < 50%
10 | Cc1ncsc1-c1ccc([C@H](CC(=O)N(C)CCCC(=O)N2CCN(CC[C@H](CSc3ccccc3)Nc3ccc(S(=O)(=O)NC(=O)c4ccc(N5CCN(CC6=C(c7ccc(Cl)cc7)CCC(C)(C)C6)CC5)cc4)cc3S(=O)(=O)C(F)(F)F)CC2)NC(=O)[C@@H]2C[C@@H](O)CN2C(=O)[C@@H](NC(=O)C2(F)CC2)C(C)(C)C)cc1 [I-138] | – | – | – | – | > 1000 nM | > 3000 nM | < 50%
11 | Cc1ncsc1-c1ccc([C@H](C)NC(=O)[C@@H]2C[C@@H](O)CN2C(=O)[C@@H](NC(=O)CCCCCCC(=O)N2CCN(CC3(C)CCC(c4ccc(Cl)cc4)=C(CN4CCN(c5ccc(C(=O)NS(=O)(=O)c6ccc(NCC78CC9CC(CC(O)(C9)C7)C8)c(S(=O)(=O)C(F)(F)F)c6)cc5)CC4)C3)CC2)C(C)(C)C)cc1 (stereo partly drawn) [I-398] | – | – | – | – | > 1000 nM | > 3000 nM | < 50%
12 | Cc1ncsc1-c1ccc(CNC(=O)[C@@H]2C[C@@H](O)CN2C(=O)[C@@H](NC(=O)C2(F)CC2)C(C)(C)C)c(OCCCNC(=O)c2nc(N3CCc4cccc(C(=O)Nc5nc6ccccc6s5)c4C3)ccc2-c2cnn(CC3CCCCC3)c2C)c1 [I-200] | – | – | – | – | 100 to 500 nM | 100 to 1000 nM | 50 to 75%
13 | Cc1ncsc1-c1ccc(CNC(=O)[C@@H]2C[C@@H](O)CN2C(=O)[C@@H](NC(=O)C2(F)CC2)C(C)(C)C)c(OCCCCCCCC(=O)NCCOc2ccc(C(=O)Nc3nc4ccccc4s3)c3c2CCN(c2ccc(-c4cnn(CC5CCCCC5)c4C)c(C(=O)O)n2)C3)c1 [I-48] | – | – | – | – | 100 to 500 nM | 100 to 1000 nM | 50 to 75%
14 | Cc1ncsc1-c1ccc([C@H](C)NC(=O)[C@@H]2C[C@@H](O)CN2C(=O)[C@@H](NC(=O)CCCCCC(=O)N2CCN(CC[C@H](CSc3ccccc3)Nc3ccc(S(=O)(=O)NC(=O)c4ccc(N5CCC(C)(C)CC5)cc4)cc3S(=O)(=O)C(F)(F)F)CC2)C(C)(C)C)cc1 [I-392] | – | – | – | – | > 1000 nM | > 3000 nM | < 50%
15 | Cc1ncsc1-c1ccc(CNC(=O)[C@@H]2C[C@@H](O)CN2C(=O)[C@@H](c2cc(N3CC4(CN(C(=O)CCCCC(=O)N(C)CC#Cc5ccc(OCCCc6ccc(N7CCc8cccc(C(=O)Nc9nc%10ccccc%10s9)c8C7)nc6C(=O)O)c(F)c5)C4)C3)no2)C(C)C)cc1 [I-193] | – | – | – | – | 10 to 100 nM | 100 to 1000 nM | > 75%
16 | Cc1ncsc1-c1ccc(CNC(=O)[C@@H]2C[C@@H](O)CN2C(=O)[C@@H](NC(=O)C2(F)CC2)C(C)(C)C)c(OCCN2CCC(NC(=O)c3nc(N4CCc5cccc(C(=O)Nc6nc7ccccc7s6)c5C4)ccc3-c3cnn(CC4CCCCC4)c3C)CC2)c1 [I-191] | – | – | – | – | 100 to 500 nM | 100 to 1000 nM | 50 to 75%
17 | Cc1ncsc1-c1ccc([C@H](C)NC(=O)[C@@H]2C[C@@H](O)CN2C(=O)[C@@H](NC(=O)CCCC(=O)NCCOc2ccc(C(=O)Nc3nc4ccccc4s3)c3c2CCN(c2ccc(-c4cnn(CC5CCCCC5)c4C)c(C(=O)O)n2)C3)C(C)(C)C)cc1 [I-43] | – | – | – | – | 100 to 500 nM | 100 to 1000 nM | 50 to 75%
18 | Cc1ncsc1-c1ccc([C@@H](CC(=O)N(C)CC(=O)N2CCN(CC[C@H](CSc3ccccc3)Nc3ccc(S(=O)(=O)NC(=O)c4ccc(N5CCN(CC6=C(c7ccc(Cl)cc7)CCC(C)(C)C6)CC5)cc4)cc3S(=O)(=O)C(F)(F)F)CC2)NC(=O)[C@@H]2C[C@@H](O)CN2C(=O)[C@@H](NC(=O)C2(F)CC2)C(C)(C)C)cc1 [I-137] | 1000 to 3000 nM | – | – | > 75% | 100 to 500 nM | – | –
19 | Cc1ncsc1-c1ccc([C@@H](CC(=O)N(C)CCCC(=O)N2CCN(CC[C@H](CSc3ccccc3)Nc3ccc(S(=O)(=O)NC(=O)c4ccc(N5CCN(CC6=C(c7ccc(Cl)cc7)CCC(C)(C)C6)CC5)cc4)cc3S(=O)(=O)C(F)(F)F)CC2)NC(=O)[C@@H]2C[C@@H](O)CN2C(=O)[C@@H](NC(=O)C2(F)CC2)C(C)(C)C)cc1 [I-139] | – | – | – | – | 100 to 500 nM | 1000 to 3000 nM | > 75%
20 | Cc1ncsc1-c1ccc(CNC(=O)[C@@H]2C[C@@H](O)CN2C(=O)[C@@H](NC(=O)C2(F)CC2)C(C)(C)C)c(OCCCCNC(=O)c2nc(N3CCc4cccc(C(=O)Nc5nc6ccccc6s5)c4C3)ccc2-c2cnn(CC3CCCCC3)c2C)c1 [I-190] | – | – | – | – | 500 to 1000 nM | 100 to 1000 nM | 50 to 75%
21 | C#Cc1ccc([C@H](CO)NC(=O)[C@@H]2C[C@@H](O)CN2C(=O)[C@@H](NC(=O)CCCCCC(=O)N2CCN(CC[C@H](CSc3ccccc3)Nc3ccc(S(=O)(=O)NC(=O)c4ccc(N5CCN(CC6=C(c7ccc(Cl)cc7)CCC(C)(C)C6)CC5)cc4)cc3S(=O)(=O)C(F)(F)F)CC2)C(C)(C)C)cc1 [I-116] | – | – | – | – | 10 to 100 nM | < 100 nM | > 75%
22 | Cc1ncsc1-c1ccc(CNC(=O)[C@@H]2C[C@@H](O)CN2C(=O)[C@@H](NC(=O)C2(F)CC2)C(C)(C)C)c(OCCCCCC(=O)NCCOc2ccc(C(=O)Nc3nc4ccccc4s3)c3c2CCN(c2ccc(-c4cnn(CC5CCCCC5)c4C)c(C(=O)O)n2)C3)c1 [I-47] | – | – | – | – | > 1000 nM | > 3000 nM | < 50%
23 | Cc1ncsc1-c1ccc([C@H](CC(=O)N(C)CC(=O)N2CCN(CC[C@H](CSc3ccccc3)Nc3ccc(S(=O)(=O)NC(=O)c4ccc(N5CCN(CC6=C(c7ccc(Cl)cc7)CCC(C)(C)C6)CC5)cc4)cc3S(=O)(=O)C(F)(F)F)CC2)NC(=O)[C@@H]2C[C@@H](O)CN2C(=O)[C@@H](NC(=O)C2(F)CC2)C(C)(C)C)cc1 [I-136] | > 3000 nM | – | – | < 50% | > 1000 nM | – | –
